Patent publication US20260217763A1, “Novel Peptide and Use Thereof” (Zincure Corp., priority 2022, published 2026)
Square brackets hold non-standard residues; d marks the D form. Ends that are not written are not given here. Peptide text beside a SMILES is read from it.

Key:
[1] = In vitro plasma stability assay; format: in vitro ADME, ICR mice; conditions: 10 μM peptide, 37° C.; for stability in plasma over time: mouse plasma, 0 to 90 min, LC-MS
Procedure: FIG. 1 is a graph showing the results of measuring quantitative changes of alloferon L-type and alloferon D-type peptides by mass spectrometry to investigate their degradation in plasma from mice, where 10 µM of each alloferon peptide was treated in isolated plasma and were incubated at 37° C. for 0, 10, 30, 60, and 90 min.
As the present inventors believed that the mechanism of action of alloferon peptides is through endocytosis via multi-ligand receptors rather than physiological activity and that zinc-binding capacity is an important mechanism, they investigated the blood stability of the D-type alloferon of Example 1-2 in which all amino acids except glycine have been replaced with D-type amino acids and the L-type alloferon of Example 1-1. An in vitro plasma stability assay was performed to compare the stability of the L-type peptide and the D-type peptide of alloferon in the plasma of mice. For this purpose, 500 to 600 μl of blood was obtained from ICR mice by orbital blood sampling, which was subsequently centrifuged at 2000×g for 20 min at 4° C. using a centrifuge, and the supernatant was collected to obtain plasma. After adding 10 μM of the alloferon L-type and D-type peptides to 100 μl of the plasma, the plasma was incubated at 37° C. for 0, 5, 10, 30, 60, and 90 min. Then, 500 μl of cold methanol was added to precipitate the protein, and the protein was lyophilized and subjected to liquid chromatography and protein mass spectrometry.

[2] = test system: GFP-mHttQ74 aggregates in HEK293T cell line; assay: Mutant huntingtin protein aggregates after overexpression, Western blot; format: cell-based; conditions: peptide 30 μM with 100 nM bafilomycin A1, 18 h, HEK293T; FIG. 6
Procedure: (§1) FIG. 6 is a result of Western blot analysis of the level of mutant huntingtin protein expression in protein samples obtained 18 h after treatment of HEK293T cells transfected to express mutant huntingtin protein with 100 nM bafilomycin A1 alone or in combination with 30 μM of some variant alloferon peptides according to one embodiment of the present invention, for investigating the degradation of mutant huntingtin protein aggregates by treatment with some variant alloferon peptides (DALS1, DAL-VS_V(−Q), DAL1, and DALV2) according to one embodiment of the present invention.
(§2) The present inventors then investigated whether some of the variant peptides (DALS1, DALVS_V, DAL1, DALV2) comprising the amino acid sequences designated as SEQ ID NO: 3 through 16 could resolve SOD1 aggregates that formed after transient transfection of SOD1 protein into the 293T cell line. To this end, EGFP-SOD1 G93A DNA was transiently transfected into the HEK293T cell line using Lipofectamine 2000. After transfection, the cell lines were incubated in a cell culture machine at 37° C. and 5% CO2 for 30 h, and the culture medium was replaced with Minimum Essential Medium (MEM, Gibco, USA). Subsequently, the cells were pretreated with 100 nM bafilomycin for 30 min, which were then treated with μM variant alloferon peptide and incubated for 18 h. […] Then, it was subjected to protein quantification using BCA protein assay kit (Pierce Biotechnology, USA), and centrifuged at 17,000×g for 20 min, where the supernant was discarded and only the cell debris was taken to obtain protein. Subsequently, 5× sample buffer (300 mM Tris, pH 6.8, 10% SDS, 50% Glycerol, 0.1% BPB, 2.5% Mercaptoethanol, 100 mM DTT) was mixed with the quantified sample, denatured at 95° C. for 5 min, and prepared for analysis. […] Protein signals were detected using enhanced chemiluminescence (INTRON Biotechnology, South Korea) and a bio-imaging system (MF-Chemibis, Shimadzu Scientific Korea Corporation, South Korea). […]

[3] = test system: EGFP-α-synuclein A53T aggregates in HEK293T cell line; assay: α-synuclein protein aggregates after overexpression, Western blot; format: cell-based; conditions: peptide with 100 nM bafilomycin A1, 18 h, HEK293T; FIG. 5
Procedure: as §1, with “FIG. 5” for “FIG. 6”, “of α-synuclein” for “of mutant huntingtin”, “express α-synuclein” for “express mutant huntingtin protein”, “30 µM” for “30 μM”
as §2

[4] = test system: H4 cell lines (GL-H4) expressing GFP-linked LC3; assay: Analysis of autophagic flow blocked by bafilomycin A-1 (LC3-GFP spots); format: cell-based; conditions: peptide 20 μM with Baf A1 100 nM, GL-H4 cells; FIGS. 2E and 2F
Procedure: FIGS. 2A to 2C are series of fluorescence micrographs of LC3-GFP spots 12 h after treating H4 cell line (GL-H4) that stably overexpresses GFP-LC3 protein with various variant alloferon peptides according to one embodiment of the present invention in combination with bafilomycin at a concentration of 20 μM, showing that autophagic flux blocked by bafilomycin A-1 is restored by the variant alloferon peptides according to one embodiment of the present invention. FIGS. 2D to 2F are graphs showing quantification of the fluorescence intensity of LC3-GFP spots 12 h after treatment of the GL-H4 cell line with the variant alloferon peptides according to one embodiment of the present invention in combination with bafilomycin at a concentration of 20 μM.
H4 cell line (GL-H4) and HEK293T cell line permanently transfected with GFP-LC3 plasmid were used in the present invention. The cell culture medium was Minimum Essential Medium (MEM, WellGene) supplemented with 10% fetal bovine serum (Hyclone, USA) and antibiotic and antifungal mixture (WellGene, Korea) and cultured in a cell culture machine at 37° C. and 5% CO2.
To investigate the effect of peptides comprising the amino acid sequences designated as SEQ ID NO: 3 to 16 on autophagic flow, the present inventors treated H4 cell lines (GL-H4) expressing GFP-linked LC3 with the peptides (20 μM) and/or the autophagic inhibitor Bafilomycin A-1 (Baf A1, 100 nM) to inhibit autophagy, and then the effect of the variant alloferon peptides according to one embodiment of the present invention was investigated by fluorescence microscopy analysis.

[5] = test system: EGFP-SOD1 G93A aggregates in HEK293T cell line; assay: SOD1 protein aggregates after SOD1 overexpression, Western blot; format: cell-based; conditions: peptide with 100 nM bafilomycin, 18 h, HEK293T; FIG. 3B
Procedure: as §1, with “FIG. 3A” for “FIG. 6”, “of SOD1” for “of mutant huntingtin”, “express SOD1” for “express mutant huntingtin protein”, “invention. FIG. 3B is a graph representing the results of quantifying relative expression of the SOD1 protein. In FIG. 3B, * indicates a significant difference compared to the treatment with bafilomycin alone (* p<0.05).” for “invention.”
The present inventors then investigated whether some of the variant peptides (DALS1, DALVS_V, DAL1, DALV2) comprising the amino acid sequences designated as SEQ ID NO: 3 through 16 could resolve SOD1 aggregates that formed after transient transfection of SOD1 protein into the 293T cell line. To this end, EGFP-SOD1 G93A DNA was transiently transfected into the HEK293T cell line using Lipofectamine 2000. After transfection, the cell lines were incubated in a cell culture machine at 37° C. and 5% CO2 for 30 h, and the culture medium was replaced with Minimum Essential Medium (MEM, Gibco, USA). Subsequently, the cells were pretreated with 100 nM bafilomycin for 30 min, which were then treated with μM variant alloferon peptide and incubated for 18 h. After that, proteinase inhibitors and phosphatase inhibitors (2 μg/ml aprotinin, 2 μg/ml leupeptin, 1 μg/ml pepstatin A, 1 mM phenyl-methylsulfonyl fluoride (PMSF), 1 mM Na3 VO4, 5 mM NaF and 10 mM Na4P2O7) were put into a 6-well culture dish at 200 μl per well to lyse the cells. The obtained cell lysate was first left at 30 min for 4° C. Then, it was subjected to protein quantification using BCA protein assay kit (Pierce Biotechnology, USA), and centrifuged at 17,000×g for 20 min, where the supernant was discarded and only the cell debris was taken to obtain protein. Subsequently, 5× sample buffer (300 mM Tris, pH 6.8, 10% SDS, 50% Glycerol, 0.1% BPB, 2.5% Mercaptoethanol, 100 mM DTT) was mixed with the quantified sample, denatured at 95° C. for 5 min, and prepared for analysis. Then, electrophoresis was performed using 8% to 15% SDS-polyacrylamide gel, and the proteins separated by their sizes were transferred to polyvinylidene difluoride (PVDF) membranes (Millipore, USA). The protein-transferred membranes were then blocked with 3% skim milk powder in TBST for 1 h. […] Protein signals were detected using enhanced chemiluminescence (INTRON Biotechnology, South Korea) and a bio-imaging system (MF-Chemibis, Shimadzu Scientific Korea Corporation, South Korea).

[6] = test system: P-Tau S214, P-Tau T205, unphosphorylated tau, p62, LC3, β-amyloid (APP); assay: Western blot of aggregate-forming proteins in cortex and hippocampus; format: in vivo; conditions: 5×FAD mice
From the text: The present inventors conducted a western blot analysis to investigate the expression of pathogenic aggregate-forming proteins in brain tissue, such as tau protein, p62, and LC3, other than β-amyloid from the results of Experimental examples 8-2 and 8-3 above.
Specifically, cortical and hippocampal tissues were obtained from experimental animals sacrificed after the behavioral experiments, and the tissues were lysed and subjected to Western blot analysis using antibodies that specifically bind to phosphorylated tau S214 (P-Tau S214), phosphorylated tau T205 (P-Tau T205), unphosphorylated tau, p62, LC3, and β-amyloid (APP), respectively.

In the case of `CC(C)[C@@H](NC(=O)CNC(=O)[C@H](N)Cc1c[nH]cn1)C(=O)N[C@H](CO)C(=O)NCC(=O)N[C@H](Cc1c[nH]cn1)C(=O)NCC(=O)N[C@H](CCC(N)=O)C(=O)N[C@H](Cc1c[nH]cn1)C(=O)NCC(=O)N[C@@H](C(=O)N[C@H](Cc1c[nH]cn1)C(=O)NCC(=O)O)C(C)C` [DAL1] (H-[dH]G[dV][dS]G[dH]G[dQ][dH]G[dV][dH]G-OH; N-terminus and C-terminus assumed), the “stability in plasma over time” value [1] is reported as “remained stable over time without degradation”.
With “DALH1: variant alloferon peptide, SEQ ID NO: 8, HGvsGhGqhGvhG (capital L-type, lowercase D-type) (HG[dV][dS]G[dH]G[dQ][dH]G[dV][dH]G)” the “mutant huntingtin protein aggregate dissociating ability compared to DAL1” value [2] was “better protein aggregate dissociating ability”.
With “DALQ1: variant alloferon peptide, SEQ ID NO: 10, hGvsGhGQhGvhG (capital L-type, lowercase D-type) ([dH]G[dV][dS]G[dH]GQ[dH]G[dV][dH]G)” the “α-synuclein protein aggregate dissociating ability compared to DAL-1” value [3] was “better protein aggregate dissociating ability”.
For “DALS1: variant alloferon peptide, SEQ ID NO: 5, hGvSGhGqhGvhG (capital L-type, lowercase D-type) ([dH]G[dV]SG[dH]G[dQ][dH]G[dV][dH]G)”, the “autophagic scavenging activity compared to D-type alloferon peptide (DAL1)” value [4] was “superior autophagic scavenging activity” and the “SOD1 protein aggregate dissociating ability compared to DAL1” value [5] was “better protein aggregate dissociating ability”.
For “DALV1: variant alloferon peptide, SEQ ID NO: 7, hGVsGhGqhGvhG (capital L-type, lowercase D-type) ([dH]GV[dS]G[dH]G[dQ][dH]G[dV][dH]G)”, the “autophagic scavenging activity compared to D-type alloferon peptide (DAL1)” value [4] was “superior autophagic scavenging activity”.
In the case of “DALV2: variant alloferon peptide, SEQ ID NO: 4, hGvsGhGqhGVhG (capital L-type, lowercase D-type) ([dH]G[dV][dS]G[dH]G[dQ][dH]GV[dH]G)”, the “α-synuclein protein aggregate dissociating ability compared to DAL-1” value [3] is reported as “better protein aggregate dissociating ability”, the “autophagic scavenging activity compared to D-type alloferon peptide (DAL1)” value [4] is reported as “superior autophagic scavenging activity” and the “amount of β-amyloid” value ([6]; Western blot of hippocampal sections) is reported as “significantly reduced”. For the same compound, the “expression of aggregate-forming proteins” value ([6]; cortex and hippocampus, 20 mg/kg IP, 25 weeks) was “significantly lower expression”, the “protein aggregate dissociating ability compared to DAL1” value ([6]; cortical Western blot analysis) was “better protein aggregate dissociating ability” and the “SOD1 protein aggregate dissociating ability compared to DAL1” value [5] was “better protein aggregate dissociating ability”. For the same compound, the “mutant huntingtin protein aggregate dissociating ability compared to DAL1” value [2] was “better protein aggregate dissociating ability”.
With “DALVS: variant alloferon peptide, SEQ ID NO: 3, hGVSGhGqhGvhG (capital L-type, lowercase D-type) ([dH]GVSG[dH]G[dQ][dH]G[dV][dH]G)” the “autophagic scavenging activity compared to D-type alloferon peptide (DAL1)” value [4] was “superior autophagic scavenging activity”.
With DALVSQV the “autophagic scavenging activity compared to D-type alloferon peptide (DAL1)” value [4] was “superior autophagic scavenging activity”.
For “DALVS_V: variant alloferon peptide with glutamine removed, SEQ ID NO: 14, hGVSGhGhGVhG (capital L-type, lowercase D-type) ([dH]GVSG[dH]G[dH]GV[dH]G)”, the “autophagic scavenging activity compared to D-type alloferon peptide (DAL1)” value [4] was “superior autophagic scavenging activity” and the “SOD1 protein aggregate dissociating ability compared to DAL1” value [5] was “better protein aggregate dissociating ability”.
With HGVSGHGQHGVHG [LAL] the half-life ([1]; FIG. 1, isolated mouse plasma, read-out: half-life (T1/2)) was 51.8 min and the “stability in plasma over time” value [1] was “degraded early in plasma”.
